# Tested on: Metabolism protein genes
# Experiment: DNA chip mRNA expression in yeast, metabolism protein genes (Table 7)
# Format: cell-based, Saccharomyces cerevisiae S288C
# Summary of the method: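 In this screen, yeast in logarithmic growth are challenged for two hours with a toxic substance at a non-lethal inhibitory concentration. Their mRNA, converted to Cy3- or Cy5-labeled cDNA, hybridizes at 65° C. to a chip spanning every yeast gene, and expression is expressed as a ratio to untreated cells.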
smiles,measurement,setting,value
"CCCCC[C@H](O)CC(=O)CCc1ccc(O)c(OC)c1 [(13), gingerol]",The level of expressed mRNA in the presence of chemical substance/The level of expressed mRNA in the absence of chemical substance,yeast gene YAL012W,1.1
same,The level of expressed mRNA in the presence of chemical substance/The level of expressed mRNA in the absence of chemical substance,yeast gene YAL038W,1.8
same,The level of expressed mRNA in the presence of chemical substance/The level of expressed mRNA in the absence of chemical substance,yeast gene YAL044C,1.1
same,The level of expressed mRNA in the presence of chemical substance/The level of expressed mRNA in the absence of chemical substance,yeast gene YAL054C,1.8
same,The level of expressed mRNA in the presence of chemical substance/The level of expressed mRNA in the absence of chemical substance,yeast gene YAR071W,0.3
same,The level of expressed mRNA in the presence of chemical substance/The level of expressed mRNA in the absence of chemical substance,yeast gene YBL001C,1.0
same,level of expressed mRNA in the presence/in the absence of chemical substance,yeast gene YBR003W,1.2
same,level of expressed mRNA in the presence/in the absence of chemical substance,yeast gene YBR011C,1.5
same,The level of expressed mRNA in the presence of chemical substance/The level of expressed mRNA in the absence of chemical substance,yeast gene YBR014C,0.9
same,level of expressed mRNA in the presence/in the absence of chemical substance,yeast gene YBR020W,1.1
same,The level of expressed mRNA in the presence of chemical substance/The level of expressed mRNA in the absence of chemical substance,yeast gene YBR023C,0.5
same,The level of expressed mRNA in the presence of chemical substance/The level of expressed mRNA in the absence of chemical substance,yeast gene YBR029C,1.7
same,The level of expressed mRNA in the presence of chemical substance/The level of expressed mRNA in the absence of chemical substance,yeast gene YBR035C,1.8
same,The level of expressed mRNA in the presence of chemical substance/The level of expressed mRNA in the absence of chemical substance,yeast gene YBR068C,2.2
same,The level of expressed mRNA in the presence of chemical substance/The level of expressed mRNA in the absence of chemical substance,yeast gene YBR111C,1.6
same,The level of expressed mRNA in the presence of chemical substance/The level of expressed mRNA in the absence of chemical substance,yeast gene YBR183W,1.4
same,The level of expressed mRNA in the presence of chemical substance/The level of expressed mRNA in the absence of chemical substance,yeast gene YBR222C,1.6
same,The level of expressed mRNA in the presence of chemical substance/The level of expressed mRNA in the absence of chemical substance,yeast gene YBR256C,3.5
same,The level of expressed mRNA in the presence of chemical substance/The level of expressed mRNA in the absence of chemical substance,yeast gene YBR296C,2.0
same,The level of expressed mRNA in the presence of chemical substance/The level of expressed mRNA in the absence of chemical substance,yeast gene YCL009C,1.6
same,The level of expressed mRNA in the presence of chemical substance/The level of expressed mRNA in the absence of chemical substance,yeast gene YCL064C,1.6
same,level of expressed mRNA in the presence/in the absence of chemical substance,yeast gene YCR010C,1.0
same,level of expressed mRNA in the presence/in the absence of chemical substance,yeast gene YCR034W,0.2
same,The level of expressed mRNA in the presence of chemical substance/The level of expressed mRNA in the absence of chemical substance,yeast gene YCR037C,1.3
same,The level of expressed mRNA in the presence of chemical substance/The level of expressed mRNA in the absence of chemical substance,yeast gene YCR048W,1.3
same,The level of expressed mRNA in the presence of chemical substance/The level of expressed mRNA in the absence of chemical substance,yeast gene YCR098C,1.4
same,The level of expressed mRNA in the presence of chemical substance/The level of expressed mRNA in the absence of chemical substance,yeast gene YDL021W,5.3
same,The level of expressed mRNA in the presence of chemical substance/The level of expressed mRNA in the absence of chemical substance,yeast gene YDL022W,1.5
same,The level of expressed mRNA in the presence of chemical substance/The level of expressed mRNA in the absence of chemical substance,yeast gene YDR009W,1.2
same,The level of expressed mRNA in the presence of chemical substance/The level of expressed mRNA in the absence of chemical substance,yeast gene YDR019C,1.0
same,level of expressed mRNA in the presence/in the absence of chemical substance,yeast gene YDR050C,2.0
same,level of expressed mRNA in the presence/in the absence of chemical substance,yeast gene YDR073W,0.6
same,level of expressed mRNA in the presence/in the absence of chemical substance,yeast gene YDR123C,0.9
same,level of expressed mRNA in the presence/in the absence of chemical substance,yeast gene YDR178W,1.5
same,level of expressed mRNA in the presence/in the absence of chemical substance,yeast gene YDR277C,1.2
same,level of expressed mRNA in the presence/in the absence of chemical substance,yeast gene YDR284C,1.2
same,level of expressed mRNA in the presence/in the absence of chemical substance,yeast gene YDR345C,1.2
same,level of expressed mRNA in the presence/in the absence of chemical substance,yeast gene YDR400W,0.7
same,level of expressed mRNA in the presence/in the absence of chemical substance,yeast gene YDR408C,0.5
same,The level of expressed mRNA in the presence of chemical substance/The level of expressed mRNA in the absence of chemical substance,yeast gene YDR410C,1.2
same,level of expressed mRNA in the presence/in the absence of chemical substance,yeast gene YDR483W,1.3
same,The level of expressed mRNA in the presence of chemical substance/The level of expressed mRNA in the absence of chemical substance,yeast gene YDR487C,1.5
same,The level of expressed mRNA in the presence of chemical substance/The level of expressed mRNA in the absence of chemical substance,yeast gene YDR502C,1.2
same,The level of expressed mRNA in the presence of chemical substance/The level of expressed mRNA in the absence of chemical substance,yeast gene YDR516C,2.5
same,The level of expressed mRNA in the presence of chemical substance/The level of expressed mRNA in the absence of chemical substance,yeast gene YEL011W,1.5
same,level of expressed mRNA in the presence/in the absence of chemical substance,yeast gene YEL063C,1.1
same,level of expressed mRNA in the presence/in the absence of chemical substance,yeast gene YER015W,0.8
same,The level of expressed mRNA in the presence of chemical substance/The level of expressed mRNA in the absence of chemical substance,yeast gene YER026C,1.9
same,The level of expressed mRNA in the presence of chemical substance/The level of expressed mRNA in the absence of chemical substance,yeast gene YER053C,4.1
same,The level of expressed mRNA in the presence of chemical substance/The level of expressed mRNA in the absence of chemical substance,yeast gene YER069W,1.4
same,level of expressed mRNA in the presence/in the absence of chemical substance,yeast gene YER081W,0.6
same,The level of expressed mRNA in the presence of chemical substance/The level of expressed mRNA in the absence of chemical substance,yeast gene YER096W,2.3
same,level of expressed mRNA in the presence/in the absence of chemical substance,yeast gene YER120W,1.0
same,The level of expressed mRNA in the presence of chemical substance/The level of expressed mRNA in the absence of chemical substance,yeast gene YER178W,2.4
same,level of expressed mRNA in the presence/in the absence of chemical substance,yeast gene YFL011W,0.8
same,The level of expressed mRNA in the presence of chemical substance/The level of expressed mRNA in the absence of chemical substance,yeast gene YFL030W,2.2
same,The level of expressed mRNA in the presence of chemical substance/The level of expressed mRNA in the absence of chemical substance,yeast gene YFL031W,2.6
same,The level of expressed mRNA in the presence of chemical substance/The level of expressed mRNA in the absence of chemical substance,yeast gene YFL056C,4.7
same,The level of expressed mRNA in the presence of chemical substance/The level of expressed mRNA in the absence of chemical substance,yeast gene YFL057C,4.1
same,level of expressed mRNA in the presence/in the absence of chemical substance,yeast gene YGL012W,0.3
same,The level of expressed mRNA in the presence of chemical substance/The level of expressed mRNA in the absence of chemical substance,yeast gene YGL022W,1.0
same,level of expressed mRNA in the presence/in the absence of chemical substance,yeast gene YGL115W,0.7
same,The level of expressed mRNA in the presence of chemical substance/The level of expressed mRNA in the absence of chemical substance,yeast gene YGL184C,7.4
same,level of expressed mRNA in the presence/in the absence of chemical substance,yeast gene YGL205W,1.0
same,The level of expressed mRNA in the presence of chemical substance/The level of expressed mRNA in the absence of chemical substance,yeast gene YGL209W,1.9
same,The level of expressed mRNA in the presence of chemical substance/The level of expressed mRNA in the absence of chemical substance,yeast gene YGL248W,2.0
same,The level of expressed mRNA in the presence of chemical substance/The level of expressed mRNA in the absence of chemical substance,yeast gene YGR055W,1.9
same,level of expressed mRNA in the presence/in the absence of chemical substance,yeast gene YGR096W,1.1
same,level of expressed mRNA in the presence/in the absence of chemical substance,yeast gene YGR191W,1.0
same,The level of expressed mRNA in the presence of chemical substance/The level of expressed mRNA in the absence of chemical substance,yeast gene YGR194C,2.2
same,level of expressed mRNA in the presence/in the absence of chemical substance,yeast gene YGR204W,1.3
same,The level of expressed mRNA in the presence of chemical substance/The level of expressed mRNA in the absence of chemical substance,yeast gene YGR282C,1.2
same,level of expressed mRNA in the presence/in the absence of chemical substance,yeast gene YGR288W,1.3
same,level of expressed mRNA in the presence/in the absence of chemical substance,yeast gene YHR025W,0.7
same,The level of expressed mRNA in the presence of chemical substance/The level of expressed mRNA in the absence of chemical substance,yeast gene YHR111W,2.2
same,level of expressed mRNA in the presence/in the absence of chemical substance,yeast gene YHR123W,1.5
same,The level of expressed mRNA in the presence of chemical substance/The level of expressed mRNA in the absence of chemical substance,yeast gene YHR137W,0.6
same,The level of expressed mRNA in the presence of chemical substance/The level of expressed mRNA in the absence of chemical substance,yeast gene YHR176W,1.9
same,level of expressed mRNA in the presence/in the absence of chemical substance,yeast gene YHR210C,0.4
same,level of expressed mRNA in the presence/in the absence of chemical substance,yeast gene YIL006W,0.8
same,The level of expressed mRNA in the presence of chemical substance/The level of expressed mRNA in the absence of chemical substance,yeast gene YIL045W,2.0
same,The level of expressed mRNA in the presence of chemical substance/The level of expressed mRNA in the absence of chemical substance,yeast gene YIL107C,1.9
same,The level of expressed mRNA in the presence of chemical substance/The level of expressed mRNA in the absence of chemical substance,yeast gene YIL154C,1.7
same,The level of expressed mRNA in the presence of chemical substance/The level of expressed mRNA in the absence of chemical substance,yeast gene YIL155C,2.0
same,The level of expressed mRNA in the presence of chemical substance/The level of expressed mRNA in the absence of chemical substance,yeast gene YIL167W,1.2
same,The level of expressed mRNA in the presence of chemical substance/The level of expressed mRNA in the absence of chemical substance,yeast gene YIR034C,2.6
same,The level of expressed mRNA in the presence of chemical substance/The level of expressed mRNA in the absence of chemical substance,yeast gene YIR036C,1.9
same,The level of expressed mRNA in the presence of chemical substance/The level of expressed mRNA in the absence of chemical substance,yeast gene YJL031C,2.6
same,The level of expressed mRNA in the presence of chemical substance/The level of expressed mRNA in the absence of chemical substance,yeast gene YJL068C,2.7
same,The level of expressed mRNA in the presence of chemical substance/The level of expressed mRNA in the absence of chemical substance,yeast gene YJL088W,1.0
